In patent US11154057B2, “Use of nootkatone to treat mosquito infestations” (EVOLVA SA, priority 2016, dated 2021):

Experiments:
Aedes aegypti eggs = assay: Prevention of mosquito egg hatching (Example No. 5); assay type: in vivo; conditions: 0.03% nootkatone/1% ethanol, 24 hours
Method: Mosquito eggs from Aedes aegypti and Anopheles quadrimaculatus mosquitoes were obtained from a commercial source.
In a second experiment, Aedes aegypti eggs were divided into cohorts of ˜100 eggs. Each cohort was placed inside a clean 9 cm Petri dish after receiving mock treatment or a true treatment with nootkatone (see “Treatments”), after which the Petri dish was covered with its lid and held at 30-35° C. to allow hatching. Hatching was scored as the number of live larvae after 24 hours. Four cohorts were tested per treatment.
An aliquot of 0.2 mL of a 3% solution (w/v) of nootkatone in 100% ethanol was added to 20 mL of sterile MilliQ water in treatment Petri dishes to obtain a final concentration of 0.03% nootkatone/1% ethanol. Control beakers received 0.2 mL of 100% ethanol, to obtain a final concentration of 1% ethanol.
The rate of egg hatching was calculated for each treatment and control egg cohort, and the results of at least 4 cohorts were averaged, and used to calculate the relative hatch rate for treatments versus controls (see FIG. 11). […] Therefore, nootkatone treatment of mosquito breeding sites will effectively reduce mosquito populations by preventing hatching and killing hatched larvae.

Aedes aegypti pupae = assay: Prevention of adult emergence (eclosion) from pupae (Example No. 7); assay type: in vivo; conditions: for Dead adults, total number / Dead pupae, total number / live adults, total number / live pupae, total number: 0.015% NK/0.5% EtOH in water
Method: Eggs of Aedes aegypti were purchased from a commercial supplier. They were hatched in sterile MilliQ water and fed with finely ground Tetramin® fish food until they developed into pupae.
Clean, glass 600 mL beakers were washed and thoroughly rinsed prior to use as test containers. On each of four testing days, pupae were removed from dishes used to grow larvae. Replicates of 10 pupae each were randomly assigned to glass beakers in a volume of 100 mL of sterile MilliQ water, and a treatment of nootkatone (see “Treatments” below), or a control treatment of ethanol alone, was added. The beakers were then covered lightly with Kimwipes, secured by rubber bands to prevent escape of adults. […]
An aliquot of 0.5 mL of a 3% solution (w/v) of nootkatone in 100% ethanol was added to treatment beakers to obtain a final concentration of 0.015% nootkatone/0.5% ethanol. Control beakers received 0.5 mL of 100% ethanol, to obtain a final concentration of 0.5% ethanol.

[1] = 0.015% nootkatone/0.5% ethanol, after 48 hours, of 150 pupae

C=C(C)[C@@H]1CCC2=CC(=O)C[C@@H](C)[C@]2(C)C1 [Nootkatone, nootkatone]
reduction in egg hatching versus the controls (Aedes aegypti eggs): 37% | state of hatched larvae in treated dishes (Aedes aegypti eggs): all larvae in the treated dishes were dead | average number of hatched larvae per Petri dish (Aedes aegypti eggs; cohorts of ~100 eggs, four dishes, controls 13.5, FIG. 11): 8.5 larvae | Dead adults, total number (Aedes aegypti pupae; 2 DAT (48 hours), of 150 pupae): 47 | Dead pupae, total number (Aedes aegypti pupae; 2 DAT (48 hours), of 150 pupae): 103 | live adults, total number (Aedes aegypti pupae; 2 DAT (48 hours), of 150 pupae): 0 | live pupae, total number (Aedes aegypti pupae; 2 DAT (48 hours), of 150 pupae): 0 | Dead adults, total number (Aedes aegypti pupae; 24 hr, of 150 pupae): 31 | Dead pupae, total number (Aedes aegypti pupae; 24 hr, of 150 pupae): 31 | live adults, total number (Aedes aegypti pupae; 24 hr, of 150 pupae): 0 | live pupae, total number (Aedes aegypti pupae; 24 hr, of 150 pupae): 88 | survivors (Aedes aegypti pupae; 0.015% nootkatone/0.5% ethanol (v/v) in water, after 48 hours): no survivors | share of pupae that died as pupae (Aedes aegypti pupae; [1]): 68.7% | share of pupae that metamorphosed but died during eclosing (Aedes aegypti pupae; [1]): 31.3%
